Read-outs that look alike come from different tables or passages of the source.
Experiments:
Assay type in all cases: biochemical
LATS2 = target: T1, LATS2 (Homo sapiens, UniProt Q9NRM7); experiment: RBC HotSpot kinase assay (33P-ATP, P81 filter-binding), LATS2; conditions: read-out: LATS2 IC50
T1 sequence (Q9NRM7 1-1088): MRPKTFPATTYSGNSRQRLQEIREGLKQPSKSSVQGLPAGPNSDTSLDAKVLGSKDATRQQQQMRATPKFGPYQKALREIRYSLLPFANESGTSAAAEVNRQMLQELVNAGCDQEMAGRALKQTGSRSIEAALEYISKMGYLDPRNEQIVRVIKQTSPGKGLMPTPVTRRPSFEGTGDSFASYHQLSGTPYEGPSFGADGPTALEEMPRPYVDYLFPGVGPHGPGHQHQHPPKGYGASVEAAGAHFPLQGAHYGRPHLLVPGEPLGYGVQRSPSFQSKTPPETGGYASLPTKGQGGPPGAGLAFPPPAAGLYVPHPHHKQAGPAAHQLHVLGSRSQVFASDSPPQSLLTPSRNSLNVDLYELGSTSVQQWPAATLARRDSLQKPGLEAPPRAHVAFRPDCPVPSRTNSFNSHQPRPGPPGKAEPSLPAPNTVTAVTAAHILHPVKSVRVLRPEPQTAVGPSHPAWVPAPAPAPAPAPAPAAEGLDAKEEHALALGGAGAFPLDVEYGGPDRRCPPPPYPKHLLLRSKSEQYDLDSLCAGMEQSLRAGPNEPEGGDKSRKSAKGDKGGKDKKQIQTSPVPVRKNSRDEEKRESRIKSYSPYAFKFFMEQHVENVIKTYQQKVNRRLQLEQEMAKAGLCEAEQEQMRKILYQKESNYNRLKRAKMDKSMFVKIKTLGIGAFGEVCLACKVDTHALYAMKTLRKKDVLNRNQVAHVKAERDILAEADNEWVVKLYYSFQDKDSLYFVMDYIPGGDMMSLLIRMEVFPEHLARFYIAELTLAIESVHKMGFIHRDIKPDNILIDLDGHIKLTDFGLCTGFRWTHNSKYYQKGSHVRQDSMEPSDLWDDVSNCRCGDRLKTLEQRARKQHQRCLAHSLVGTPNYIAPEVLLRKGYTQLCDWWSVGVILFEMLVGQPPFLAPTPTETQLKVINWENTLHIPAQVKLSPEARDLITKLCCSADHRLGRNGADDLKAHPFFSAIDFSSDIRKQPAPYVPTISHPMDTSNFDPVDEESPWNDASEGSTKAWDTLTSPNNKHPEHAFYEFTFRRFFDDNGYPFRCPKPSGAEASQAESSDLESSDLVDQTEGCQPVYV
How it was run: (§1)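 IC50 in nM was derived from 10-point, single-replicate titrations. Read-out was radiometric P81 filter binding following a 2 h room-temperature reaction with 33P-ATP, after 20 min compound preincubation.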

AKT = AKT (Homo sapiens, UniProt P31749); experiment: RBC HotSpot kinase assay (33P-ATP, P81 filter-binding), AKT; conditions: read-out: AKT IC50
AKT, sequence (P31749 whole entry): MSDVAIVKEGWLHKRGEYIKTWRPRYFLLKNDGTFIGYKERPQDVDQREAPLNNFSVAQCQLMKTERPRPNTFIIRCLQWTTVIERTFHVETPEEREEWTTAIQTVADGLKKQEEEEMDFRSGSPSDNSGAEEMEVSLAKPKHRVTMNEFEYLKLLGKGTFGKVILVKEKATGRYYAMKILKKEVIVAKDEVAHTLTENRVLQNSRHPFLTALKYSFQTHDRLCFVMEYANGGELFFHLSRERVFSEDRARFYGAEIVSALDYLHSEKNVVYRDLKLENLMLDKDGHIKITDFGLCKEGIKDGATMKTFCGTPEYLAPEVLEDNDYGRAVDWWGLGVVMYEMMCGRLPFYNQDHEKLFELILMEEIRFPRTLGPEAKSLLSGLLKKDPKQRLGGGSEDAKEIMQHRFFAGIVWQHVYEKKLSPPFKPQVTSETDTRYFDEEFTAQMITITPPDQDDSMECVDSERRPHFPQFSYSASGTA
How it was run: as §1

LATS1 = target: T2, LATS1 (Homo sapiens, UniProt O95835); experiment: RBC HotSpot kinase assay (33P-ATP, P81 filter-binding), LATS1; conditions: read-out: LATS1 IC50
T2 sequence (O95835 1-1130): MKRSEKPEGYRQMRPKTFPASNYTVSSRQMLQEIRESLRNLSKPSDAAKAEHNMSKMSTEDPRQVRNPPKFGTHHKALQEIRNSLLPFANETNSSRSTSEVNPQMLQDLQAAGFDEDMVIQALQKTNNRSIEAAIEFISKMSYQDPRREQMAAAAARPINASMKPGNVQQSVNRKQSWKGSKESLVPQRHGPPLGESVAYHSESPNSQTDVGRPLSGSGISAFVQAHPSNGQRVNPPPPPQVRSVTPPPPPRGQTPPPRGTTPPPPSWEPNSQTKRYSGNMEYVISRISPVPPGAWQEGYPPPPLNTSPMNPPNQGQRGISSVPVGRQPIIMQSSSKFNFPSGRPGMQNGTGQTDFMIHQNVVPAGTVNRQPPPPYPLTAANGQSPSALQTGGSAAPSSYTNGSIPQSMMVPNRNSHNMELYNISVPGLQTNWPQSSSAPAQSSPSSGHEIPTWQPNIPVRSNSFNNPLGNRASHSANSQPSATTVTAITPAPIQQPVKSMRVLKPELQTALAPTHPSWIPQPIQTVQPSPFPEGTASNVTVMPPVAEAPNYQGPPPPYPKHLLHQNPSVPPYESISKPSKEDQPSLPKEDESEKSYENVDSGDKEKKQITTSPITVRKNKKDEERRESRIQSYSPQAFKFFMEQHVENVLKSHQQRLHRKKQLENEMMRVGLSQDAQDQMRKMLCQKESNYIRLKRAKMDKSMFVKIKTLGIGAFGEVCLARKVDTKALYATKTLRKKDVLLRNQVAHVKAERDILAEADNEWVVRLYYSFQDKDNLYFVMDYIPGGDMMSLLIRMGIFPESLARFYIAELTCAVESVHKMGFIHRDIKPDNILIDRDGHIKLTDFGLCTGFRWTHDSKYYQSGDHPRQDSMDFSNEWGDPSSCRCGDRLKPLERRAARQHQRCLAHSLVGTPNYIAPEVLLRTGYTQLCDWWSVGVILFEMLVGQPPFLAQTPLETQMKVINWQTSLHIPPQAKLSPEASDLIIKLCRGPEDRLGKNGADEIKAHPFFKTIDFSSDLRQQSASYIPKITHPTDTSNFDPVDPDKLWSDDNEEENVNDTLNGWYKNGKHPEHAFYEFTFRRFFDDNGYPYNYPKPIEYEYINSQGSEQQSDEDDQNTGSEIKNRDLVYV
How it was run: as §1

[1] = Table 28, biochemical kinase assay
[2] = Table 32, biochemical kinase assay

IC50 (LATS2; [1]) [µM]	IC50 (AKT; [1]) [µM]	IC50 (LATS1; [1]) [µM]	Structure (SMILES)	also measured
0.0052	0.116	0.0034	Cc1cc(-c2ccnc3[nH]cc(Cl)c23)ccc1CN [Compound 254, (4-(3-chloro-1H-pyrrolo[2,3-b]pyridin-4-yl)-2-methylphenyl) methanamine]	
			Cc1cc(-c2ccnc3[nH]cc(C#N)c23)cc(F)c1[C@@]1(O)[C@H](C)CN(C(=O)[C@](C)(N)CO)C[C@@H]1C [Compound 2008, 4-(4-((3S,4s,5R)-1-(2-amino-3-hydroxy-2-methylpropanoyl)-4-hydroxy-3,5-dimethylpiperidin-4-yl)-3-fluoro-5-methylphenyl)-1H-pyrrolo[2,3-b]pyridine-3-carbonitrile]	IC50 (LATS2; biochemical kinase inhibition): 0.0055 µM; IC50 (AKT; biochemical kinase inhibition): 0.262 µM; IC50 (LATS1; biochemical kinase inhibition): 0.0052 µM
			NCC(O)(c1ccc(Cl)cc1)c1ccc(-c2ccnc3[nH]cc(Br)c23)cc1 (stereo not drawn) [Compound 1005, 2-amino-1-(4-(3-bromo-1H-pyrrolo[2,3-b]pyridin-4-yl)phenyl)-1-(4-chlorophenyl)ethan-1-ol]	IC50 (LATS2; [2]): 0.0089 µM; IC50 (AKT; [2]): 0.0017 µM; IC50 (LATS1; [2]): 0.0051 µM
0.0012	0.229	0.0011	CC(C)(N)c1ccc(-c2ccnc3[nH]cc(F)c23)cc1 [Compound 238, 2-(4-(3-fluoro-1H-pyrrolo[2,3-b]pyridin-4-yl)phenyl)propan-2-amine]	
0.0046	0.1	0.0049	C[C@@H]1CN(C2CCNCC2)C[C@H](C)[C@@]1(O)c1c(F)cc(-c2ccnc3[nH]cc(F)c23)cc1F [Compound 90, (3R,4s,5S)-4-(2,6-difluoro-4-(3-fluoro-1H-pyrrolo[2,3-b]pyridin-4-yl)phenyl)-3,5-dimethyl-[1,4′-bipiperidin]-4-ol]	
0.025	0.428	0.02	c1cc(-c2ccc(C3CCCCN3)cc2)c2cc[nH]c2n1 (stereo not drawn) [Compound 271, 4-(4-(piperidin-2-yl)phenyl)-1H-pyrrolo[2,3-b]pyridine]	
0.019	0.715	0.0096	Fc1c[nH]c2nccc(-c3ccc(C4CCNCC4)c(Cl)c3)c12 [Compound 172, 4-(3-chloro-4-(piperidin-4-yl)phenyl)-3-fluoro-1H-pyrrolo[2,3-b]pyridine]	
0.0121	0.0628	0.009	Cc1cc(-c2ccnc3[nH]cc(F)c23)ccc1[C@@]1(O)[C@H](C)CN(C2CCS(=O)(=O)CC2)C[C@@H]1C [Compound 55, 4-((3R,4s, 5S)-4-(4-(3-fluoro-1H-pyrrolo[2,3-b]pyridin-4-yl)-2-methylphenyl)-4-hydroxy-3,5S-dimethylpiperidin-1-yl)tetrahydro-2H-thiopyran 1,1-dioxide]	

Structure (SMILES)	IC50 (LATS2; [1]) [µM]	IC50 (AKT; [1]) [µM]	IC50 (LATS1; [1]) [µM]	also measured
OC1(c2ccc(-c3ccnc4[nH]cc(F)c34)cc2)CC2(CNC2)C1 [Compound 319, 6-(4-(3-fluoro-1H-pyrrolo[2,3-b]pyridin-4-yl)phenyl)-2-azaspiro[3.3]heptan-6-ol]	0.0293	0.378	0.066	

Reference: patent US20250361230A1, “LATS Inhibitors and Uses Thereof” (The USA, as Represented by the Secretary, Dept. of Heath …, priority 2022, published 2025)
